The values below come from publication PMC4151877 (Science (New York, N.Y.), 2014).

In experiment [1] the target is T1, NaAtm1 (Novosphingobium aromaticivorans, UniProt Q2G506).
T1 sequence (Q2G506 1-608): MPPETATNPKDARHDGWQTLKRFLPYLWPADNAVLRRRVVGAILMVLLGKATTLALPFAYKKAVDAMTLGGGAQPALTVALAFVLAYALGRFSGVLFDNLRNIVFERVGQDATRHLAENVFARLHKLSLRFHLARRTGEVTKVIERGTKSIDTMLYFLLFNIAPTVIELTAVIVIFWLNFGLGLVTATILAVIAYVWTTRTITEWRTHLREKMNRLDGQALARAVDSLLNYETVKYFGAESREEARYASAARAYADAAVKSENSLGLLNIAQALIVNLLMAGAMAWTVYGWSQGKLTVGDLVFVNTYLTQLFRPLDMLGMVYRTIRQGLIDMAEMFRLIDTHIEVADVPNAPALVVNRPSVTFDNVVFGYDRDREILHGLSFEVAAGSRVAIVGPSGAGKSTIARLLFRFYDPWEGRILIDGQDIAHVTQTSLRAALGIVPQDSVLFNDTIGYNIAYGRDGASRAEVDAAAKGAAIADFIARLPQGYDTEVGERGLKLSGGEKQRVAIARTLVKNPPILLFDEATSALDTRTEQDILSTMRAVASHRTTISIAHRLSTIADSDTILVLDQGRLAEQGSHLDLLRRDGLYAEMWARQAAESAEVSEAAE
The experiment is described as follows: ligand-stimulated ATPase activity. Format: biochemical. Particulars: ATP hydrolysis.

Experiment [2] deals with T1, NaAtm1. Kind of experiment: ligand-stimulated ATPase activity, Michaelis-Menten type analysis. Particulars: ATP hydrolysis; stimulating ligand varied. Format: biochemical.

In the case of `N[C@@H](CS)C(=O)NCC(=O)O` [Cys-Gly], on NaAtm1 [1], the ATPase stimulation result was “exhibit stronger ATPase activities relative to Cys-Gly and mono-carboxylic acids”.

Regarding `CSCC[C@H](N)C(=O)O` [Met], the ATPase stimulation entry at NaAtm1 [1] was “free amino acids Gly and Met to stimulate ATPase activity as effectively as GSH”.

On to `N[C@@H](CCC(=O)N[C@@H](CS)C(=O)O)C(=O)O` [γ-Glu-Cys], for which the Km result on NaAtm1 [2] was “γ-peptides GSH, γ-Glu-Cys, and ophthalmic acid”.
